Source: article PMC4941420, “A Rational Approach for the Identification of Non-Hydroxamate HDAC6-Selective Inhibitors” (Scientific Reports, 2016)

Assays:
HDAC6 = target: T1, HDAC6 (Homo sapiens, UniProt Q9UBN7); assay: In vitro enzymatic assay HDAC6 (Fluor de Lys); format: biochemical; conditions: for HDAC6 % of inhibition at 100 µM / inhibition at 100 µM: mean ± SD (n=3); for inhibition at 100 µM: read-out: HDAC6 % of inhibition at 100 µM; for IC50: average of at least 2 independent experiments in duplicates ± SEM
T1 construct: purchased Sigma Aldrich or Reaction Biology Corporation
T1 sequence (Q9UBN7 1-1215): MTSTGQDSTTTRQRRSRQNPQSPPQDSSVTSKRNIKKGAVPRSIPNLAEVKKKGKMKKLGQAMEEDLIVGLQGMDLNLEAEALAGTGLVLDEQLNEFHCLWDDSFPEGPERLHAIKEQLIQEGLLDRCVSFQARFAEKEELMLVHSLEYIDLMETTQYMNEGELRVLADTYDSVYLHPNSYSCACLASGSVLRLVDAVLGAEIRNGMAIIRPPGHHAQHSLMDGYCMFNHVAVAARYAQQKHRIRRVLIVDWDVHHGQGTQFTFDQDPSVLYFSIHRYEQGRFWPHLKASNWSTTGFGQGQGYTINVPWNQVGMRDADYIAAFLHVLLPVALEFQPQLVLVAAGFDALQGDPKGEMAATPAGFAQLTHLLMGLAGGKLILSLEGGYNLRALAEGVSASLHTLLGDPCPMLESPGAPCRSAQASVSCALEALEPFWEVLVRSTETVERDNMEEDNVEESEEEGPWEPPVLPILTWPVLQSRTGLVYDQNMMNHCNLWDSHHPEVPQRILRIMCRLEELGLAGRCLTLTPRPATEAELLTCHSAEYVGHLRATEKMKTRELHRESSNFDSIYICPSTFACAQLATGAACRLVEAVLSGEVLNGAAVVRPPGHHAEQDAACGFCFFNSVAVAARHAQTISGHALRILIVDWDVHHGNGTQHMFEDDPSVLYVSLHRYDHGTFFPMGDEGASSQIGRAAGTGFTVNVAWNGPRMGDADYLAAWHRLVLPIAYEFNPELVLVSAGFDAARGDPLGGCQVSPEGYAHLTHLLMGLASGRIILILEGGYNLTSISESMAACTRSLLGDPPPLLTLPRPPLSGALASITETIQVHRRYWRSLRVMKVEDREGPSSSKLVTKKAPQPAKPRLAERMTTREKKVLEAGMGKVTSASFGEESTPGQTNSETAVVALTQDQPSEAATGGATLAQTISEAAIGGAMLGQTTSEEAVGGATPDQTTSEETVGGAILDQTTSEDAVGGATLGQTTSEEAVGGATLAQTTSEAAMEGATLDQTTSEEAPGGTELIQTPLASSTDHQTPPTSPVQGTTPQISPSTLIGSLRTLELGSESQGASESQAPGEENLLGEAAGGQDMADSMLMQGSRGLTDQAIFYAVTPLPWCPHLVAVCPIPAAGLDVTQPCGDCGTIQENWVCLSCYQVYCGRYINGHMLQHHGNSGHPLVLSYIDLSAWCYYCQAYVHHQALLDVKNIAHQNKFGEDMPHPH

[1] = system: class I HDACs (HeLa nuclear extracts); assay: HDAC activity of HeLa nuclear extracts (Fluor de Lys); format: biochemical, human; conditions: 100 μM, average of at least 3 independent experiments in duplicates (Table 1)
HDAC2 = target: T2, HDAC2 (Homo sapiens, UniProt Q92769); assay: In vitro enzymatic assay HDAC2 (Fluor de Lys); format: biochemical; conditions: average of at least 2 independent experiments in duplicates ± SEM
T2 construct: purchased Sigma Aldrich or Reaction Biology Corporation
T2 sequence (Q92769 whole entry): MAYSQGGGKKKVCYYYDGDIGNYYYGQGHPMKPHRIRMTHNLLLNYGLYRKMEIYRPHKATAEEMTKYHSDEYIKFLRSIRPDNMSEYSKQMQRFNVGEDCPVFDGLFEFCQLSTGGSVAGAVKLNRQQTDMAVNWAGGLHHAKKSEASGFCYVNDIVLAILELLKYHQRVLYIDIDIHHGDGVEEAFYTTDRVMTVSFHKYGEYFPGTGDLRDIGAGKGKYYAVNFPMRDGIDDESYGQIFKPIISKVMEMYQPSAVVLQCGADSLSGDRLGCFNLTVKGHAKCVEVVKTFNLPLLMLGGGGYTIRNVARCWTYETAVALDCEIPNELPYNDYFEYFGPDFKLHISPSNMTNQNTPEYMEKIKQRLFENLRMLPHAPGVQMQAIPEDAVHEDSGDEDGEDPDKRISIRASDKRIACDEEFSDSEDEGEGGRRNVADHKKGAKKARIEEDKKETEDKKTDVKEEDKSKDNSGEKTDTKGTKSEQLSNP

HDAC8 = target: T3, HDAC8 (Homo sapiens, UniProt Q9BY41); assay: In vitro enzymatic assay HDAC8 (Fluor de Lys); format: biochemical; conditions: average of at least 2 independent experiments in duplicates ± SEM
T3 construct: purchased Sigma Aldrich or Reaction Biology Corporation
T3 sequence (Q9BY41 1-377): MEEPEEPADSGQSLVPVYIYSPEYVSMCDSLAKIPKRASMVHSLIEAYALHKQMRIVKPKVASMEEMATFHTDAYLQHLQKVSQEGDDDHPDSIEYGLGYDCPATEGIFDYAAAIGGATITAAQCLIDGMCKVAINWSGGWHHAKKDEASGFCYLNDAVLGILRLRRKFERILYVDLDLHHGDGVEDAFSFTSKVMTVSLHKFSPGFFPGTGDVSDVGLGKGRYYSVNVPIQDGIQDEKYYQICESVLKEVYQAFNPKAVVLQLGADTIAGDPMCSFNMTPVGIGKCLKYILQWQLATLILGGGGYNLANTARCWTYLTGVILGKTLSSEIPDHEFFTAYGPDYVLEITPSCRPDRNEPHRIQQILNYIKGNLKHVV

HDAC4 = target: T4, HDAC4 (Homo sapiens, UniProt P56524); assay: In vitro enzymatic assay HDAC4 (Fluor de Lys); format: biochemical; conditions: average of at least 2 independent experiments in duplicates ± SEM
T4 construct: purchased Sigma Aldrich or Reaction Biology Corporation
T4 sequence (P56524 whole entry): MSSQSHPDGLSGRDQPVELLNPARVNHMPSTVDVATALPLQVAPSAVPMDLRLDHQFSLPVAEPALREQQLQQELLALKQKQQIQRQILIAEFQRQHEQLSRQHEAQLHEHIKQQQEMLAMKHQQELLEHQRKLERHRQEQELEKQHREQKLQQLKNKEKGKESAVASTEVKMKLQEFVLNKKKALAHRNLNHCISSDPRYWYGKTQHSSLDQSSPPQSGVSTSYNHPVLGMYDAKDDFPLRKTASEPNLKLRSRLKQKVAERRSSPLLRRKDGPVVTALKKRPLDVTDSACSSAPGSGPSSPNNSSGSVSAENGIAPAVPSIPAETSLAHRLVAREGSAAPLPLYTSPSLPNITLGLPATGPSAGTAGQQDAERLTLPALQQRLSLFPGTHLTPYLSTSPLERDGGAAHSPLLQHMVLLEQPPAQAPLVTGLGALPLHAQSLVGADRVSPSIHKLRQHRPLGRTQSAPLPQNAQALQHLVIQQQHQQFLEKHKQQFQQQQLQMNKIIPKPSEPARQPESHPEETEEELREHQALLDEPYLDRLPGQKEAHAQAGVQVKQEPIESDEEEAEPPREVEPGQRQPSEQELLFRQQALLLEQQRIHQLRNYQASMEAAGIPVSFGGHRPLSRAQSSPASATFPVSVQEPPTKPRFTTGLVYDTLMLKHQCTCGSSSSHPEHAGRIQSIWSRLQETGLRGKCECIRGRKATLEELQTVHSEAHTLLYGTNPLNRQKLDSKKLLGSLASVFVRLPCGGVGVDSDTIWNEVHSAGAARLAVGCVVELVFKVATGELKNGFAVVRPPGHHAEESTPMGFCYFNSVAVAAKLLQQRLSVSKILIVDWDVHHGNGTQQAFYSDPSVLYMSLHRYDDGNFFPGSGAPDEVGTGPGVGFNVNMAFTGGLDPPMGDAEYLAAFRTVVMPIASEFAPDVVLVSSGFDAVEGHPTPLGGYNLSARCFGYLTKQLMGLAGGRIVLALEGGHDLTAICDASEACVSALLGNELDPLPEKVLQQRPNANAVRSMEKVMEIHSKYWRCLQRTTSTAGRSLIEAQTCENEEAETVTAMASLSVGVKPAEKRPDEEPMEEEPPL

[2] = Solubility remarks during testing; format: physicochemical; conditions: tested at 100 µM in HDAC assay buffer

SMILES: CC(C)C12CC3CC(CC(C(=O)NN)(C3)C1)C2 [AF-1]
- HDAC6 % of inhibition at 100 µM (HDAC6): 5.2 ± 1.5%

SMILES: CC1(C)Cc2ccccc2C2=C/C(=N/O)C(=O)N21 [AG-1]
- HeLa % of inhibition at 100 μM [1]: 38.2 ± 1.1%
- inhibition at 100 µM (HDAC6): 83.8 ± 2.3%
- selectivity index (SI) with respect to HDAC2 (HDAC6; HDAC6 versus HDAC2): > 50
- IC50 (HDAC6): 21.7 ± 1.2 µM
- IC50 (HDAC2): > 1000 µM
- IC50 (HDAC8): 0.3 ± 0.005 µM
- IC50 (HDAC4): 111 ± 3.5 µM

SMILES: COc1cc(/C=C2/SC(N)=NC2=O)ccc1OCc1ccc(Cl)cc1Cl [AG-2]
- HDAC6 % of inhibition at 100 µM (HDAC6): -2.8 ± 9.7% Self-fluorescence

SMILES: C=CCn1c2ccccc2c2nnc(SC(CC)C(=O)Nc3ccc(S(N)(=O)=O)cc3)nc21 (stereo not shown) [AG-3]
- HDAC6 % of inhibition at 100 µM (HDAC6): 16.3 ± 0. %

SMILES: CC(C)(C)CC(C)(C)c1ccc(OCC(=O)NN)c([N+](=O)[O-])c1 [AG-4]
- HDAC6 % of inhibition at 100 µM (HDAC6): 5.5 ± 2.9%

SMILES: N/N=C1\CCCc2c1[nH]c1ccc(C(=O)NN)cc21 [AH-1]
- HDAC6 % of inhibition at 100 µM (HDAC6): 26.9 ± 6.1%

SMILES: Cc1ccccc1COc1ccc(/C=N/NC(N)=S)cc1 [AH-2]
- HDAC6 % of inhibition at 100 µM (HDAC6): 12.1 ± 1.6%

SMILES: CC(C)c1ccc(OCc2cccc(C(=O)NN)c2)cc1 [AK-1]
- HDAC6 % of inhibition at 100 µM (HDAC6): 18.3 ± 0.1%

SMILES: Cc1nn(Cc2ccc(C(=O)NN)cc2)c(C)c1Cl [AK-2]
- HeLa % of inhibition at 100 μM [1]: 10.0 ± 2.0%
- inhibition at 100 µM (HDAC6): 58 ± 1.5%
- IC50 (HDAC6): 47.9 ± 4.7 µM
- IC50 (HDAC2): > 200 µM
- IC50 (HDAC8): 140 ± 11.5 µM
- IC50 (HDAC4): > 300 µM

SMILES: Cn1cc(Br)c(C(=O)NN)n1 [AK-3]
- HDAC6 % of inhibition at 100 µM (HDAC6): 0.1 ± 2.3%

SMILES: NNC(=O)C12CC3CC(C1)CC(n1cnc(Cl)n1)(C3)C2 [AK-4]
- HDAC6 % of inhibition at 100 µM (HDAC6): 3.0 ± 0.3%

SMILES: COc1ccccc1OCc1ccc(C(=O)NN)cc1 [AK-5]
- HeLa % of inhibition at 100 μM [1]: 5.8 ± 1.3%
- inhibition at 100 µM (HDAC6): 64.4 ± 1.3%
- IC50 (HDAC6): 45.6 ± 1.5 µM
- IC50 (HDAC2): > 200 µM
- IC50 (HDAC8): 130 ± 9 µM
- IC50 (HDAC4): > 300 µM

SMILES: NNC(=O)c1cccc(COc2cc(Cl)ccc2Cl)c1 [AK-6]
- HDAC6 % of inhibition at 100 µM (HDAC6): 15.3 ± 0.5%

SMILES: NNC(=O)c1cc2nc(-c3cccs3)cc(C(F)(F)F)n2n1 [AK-7]
- HDAC6 % of inhibition at 100 µM (HDAC6): 31.1 ± 0.5% Self-fluorescence

SMILES: CC1(C)Cc2c(c(N3CCOCC3)nc3sc(C(=O)NN)cc23)CO1 [AK-8]
- HDAC6 % of inhibition at 100 µM (HDAC6): 32.5 ± 8.8%
- solubility remark in HDAC6 screening [2]: Solubility issues

SMILES: CCOc1cc(/C=N/O)cc(Cl)c1OC [AK-9]
- HDAC6 % of inhibition at 100 µM (HDAC6): 8.0 ± 4.6%

SMILES: CC(C)Oc1cccc(C(=O)NN)c1 [AK-10]
- HDAC6 % of inhibition at 100 µM (HDAC6): 13.9 ± 17.9%

SMILES: Cc1nn(Cc2ccc(C(=O)NN)o2)c(C)c1Cl [AK-11]
- HDAC6 % of inhibition at 100 µM (HDAC6): 5.3 ± 19.9%

SMILES: Cc1c(C)n(Cc2ccccc2)c2ccc(C(=O)NN)cc12 [AK-12]
- HDAC6 % of inhibition at 100 µM (HDAC6): 28.2 ± 16.7%

SMILES: NNC(=O)CC12CC3CC(C1)CC(n1ncnn1)(C3)C2 [AK-13]
- HDAC6 % of inhibition at 100 µM (HDAC6): 23.7 ± 9.3%
